Experimental data from the supplement of paper PMC6045584.
± gives the standard deviation of the averaged measurements.

Key:
[1] = compound: CCc1cc(Nc2nccc(-c3c(-c4ccc(OC)c(C(=O)Nc5c(F)cccc5F)c4)nc4ccccn34)n2)c(OC)cc1N1CCC(N2CCN(S(C)(=O)=O)CC2)CC1; assay: surviving fraction relative to DMSO-only wells; higher = less growth inhibition; conditions: exposure time: 5 days
In short: (§1)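 Inhibitors at 0.5, 1, 5, 10, 50, 100, 500 and 1000 nM were applied continuously for five days to tumour cell lines seeded in log phase at 250–500 cells per well in 384-well plates 24 hours earlier. Viability was measured by CellTiter-Glo luminescence and expressed as surviving fraction relative to the median of DMSO-only wells. Luminescence was taken after 10 minutes at room temperature.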

[2] = compound: C[C@H](CN(C)C)Oc1nc(Nc2cc3cccc(Cl)c3cn2)cnc1C#N; assay: as above; conditions: exposure time: 5 days
In short: as §1

MDAMB436 BREAST
surviving fraction ([1]; 0.5 nM): 1.01 ± 0.065
surviving fraction ([1]; 1 nM): 0.997 ± 0.064
surviving fraction ([1]; 5 nM): 0.933 ± 0.063
surviving fraction ([1]; 10 nM): 0.965 ± 0.041
surviving fraction ([1]; 50 nM): 0.961 ± 0.11
surviving fraction ([1]; 100 nM): 0.967 ± 0.071
surviving fraction ([1]; 500 nM): 1.04 ± 0.07
surviving fraction ([1]; 1000 nM): 0.887 ± 0.11
surviving fraction ([2]; 0.5 nM): 0.927 ± 0.072
surviving fraction ([2]; 1 nM): 0.927 ± 0.15
surviving fraction ([2]; 5 nM): 0.963 ± 0.14
surviving fraction ([2]; 10 nM): 0.959 ± 0.13
surviving fraction ([2]; 50 nM): 0.953 ± 0.11
surviving fraction ([2]; 100 nM): 0.808 ± 0.14
surviving fraction ([2]; 500 nM): 0.641 ± 0.1
surviving fraction ([2]; 1000 nM): 0.451 ± 0.077

MDAMB453 BREAST
surviving fraction ([1]; 0.5 nM): 1.02 ± 0.037
surviving fraction ([1]; 1 nM): 1.09 ± 0.12
surviving fraction ([1]; 5 nM): 1.14 ± 0.043
surviving fraction ([1]; 10 nM): 1.08 ± 0.054
surviving fraction ([1]; 50 nM): 1.12 ± 0.029
surviving fraction ([1]; 100 nM): 1.16 ± 0.031
surviving fraction ([1]; 500 nM): 1.02 ± 0.061
surviving fraction ([1]; 1000 nM): 1.07 ± 0.086
surviving fraction ([2]; 0.5 nM): 1.04 ± 0.025
surviving fraction ([2]; 1 nM): 1.09 ± 0.063
surviving fraction ([2]; 5 nM): 1.11 ± 0.058
surviving fraction ([2]; 10 nM): 1.06 ± 0.025
surviving fraction ([2]; 50 nM): 1.1 ± 0.051
surviving fraction ([2]; 100 nM): 1.1 ± 0.056
surviving fraction ([2]; 500 nM): 0.596 ± 0.074
surviving fraction ([2]; 1000 nM): 0.273 ± 0.012

MDAMB468 BREAST
surviving fraction ([1]; 0.5 nM): 0.909 ± 0.09
surviving fraction ([1]; 1 nM): 1.04 ± 0.053
surviving fraction ([1]; 5 nM): 1.12 ± 0.047
surviving fraction ([1]; 10 nM): 1.14 ± 0.041
surviving fraction ([1]; 50 nM): 1.04 ± 0.091
surviving fraction ([1]; 100 nM): 1.17 ± 0.073
surviving fraction ([1]; 500 nM): 1.04 ± 0.07
surviving fraction ([1]; 1000 nM): 1.06 ± 0.041
surviving fraction ([2]; 0.5 nM): 0.976 ± 0.074
surviving fraction ([2]; 1 nM): 1.01 ± 0.043
surviving fraction ([2]; 5 nM): 1.08 ± 0.035
surviving fraction ([2]; 10 nM): 1.071 ± 0.0092
surviving fraction ([2]; 50 nM): 1.03 ± 0.036
surviving fraction ([2]; 100 nM): 1.03 ± 0.041
surviving fraction ([2]; 500 nM): 0.54 ± 0.039
surviving fraction ([2]; 1000 nM): 0.223 ± 0.017

MFM223 BREAST
surviving fraction ([1]; 0.5 nM): 1.14 ± 0.05
surviving fraction ([1]; 1 nM): 1.15 ± 0.036
surviving fraction ([1]; 5 nM): 1.1 ± 0.08
surviving fraction ([1]; 10 nM): 1.15 ± 0.027
surviving fraction ([1]; 50 nM): 1.15 ± 0.012
surviving fraction ([1]; 100 nM): 1.21 ± 0.06
surviving fraction ([1]; 500 nM): 1.19 ± 0.033
surviving fraction ([1]; 1000 nM): 1.05 ± 0.079
surviving fraction ([2]; 0.5 nM): 1.27 ± 0.17
surviving fraction ([2]; 1 nM): 1.09 ± 0.057
surviving fraction ([2]; 5 nM): 1.15 ± 0.14
surviving fraction ([2]; 10 nM): 1.09 ± 0.094
surviving fraction ([2]; 50 nM): 1.08 ± 0.093
surviving fraction ([2]; 100 nM): 1.14 ± 0.18
surviving fraction ([2]; 500 nM): 0.8 ± 0.048
surviving fraction ([2]; 1000 nM): 0.526 ± 0.17

MG63 BONE
surviving fraction ([1]; 0.5 nM): 0.953 ± 0.012
surviving fraction ([1]; 1 nM): 0.987 ± 0.028
surviving fraction ([1]; 5 nM): 1.005 ± 0.01
surviving fraction ([1]; 10 nM): 1.06 ± 0.026
surviving fraction ([1]; 50 nM): 0.968 ± 0.034
surviving fraction ([1]; 100 nM): 1.01 ± 0.014
surviving fraction ([1]; 500 nM): 0.956 ± 0.029
surviving fraction ([1]; 1000 nM): 0.976 ± 0.047
surviving fraction ([2]; 0.5 nM): 1.03 ± 0.042
surviving fraction ([2]; 1 nM): 1.05 ± 0.035
surviving fraction ([2]; 5 nM): 1.05 ± 0.037
surviving fraction ([2]; 10 nM): 1.06 ± 0.025
surviving fraction ([2]; 50 nM): 1.11 ± 0.031
surviving fraction ([2]; 100 nM): 1.12 ± 0.047
surviving fraction ([2]; 500 nM): 1.05 ± 0.051
surviving fraction ([2]; 1000 nM): 0.889 ± 0.045

MHM BONE
surviving fraction ([1]; 0.5 nM): 0.97 ± 0.021
surviving fraction ([1]; 1 nM): 0.974 ± 0.032
surviving fraction ([1]; 5 nM): 1.03 ± 0.011
surviving fraction ([1]; 10 nM): 0.998 ± 0.011
surviving fraction ([1]; 50 nM): 1.027 ± 0.0053
surviving fraction ([1]; 100 nM): 1 ± 0.03
surviving fraction ([1]; 500 nM): 0.982 ± 0.055
surviving fraction ([1]; 1000 nM): 0.975 ± 0.029
surviving fraction ([2]; 0.5 nM): 1.02 ± 0.031
surviving fraction ([2]; 1 nM): 1.03 ± 0.012
surviving fraction ([2]; 5 nM): 1.04 ± 0.026
surviving fraction ([2]; 10 nM): 1.07 ± 0.06
surviving fraction ([2]; 50 nM): 1.031 ± 0.0078
surviving fraction ([2]; 100 nM): 1.05 ± 0.02
surviving fraction ([2]; 500 nM): 1.063 ± 0.0031
surviving fraction ([2]; 1000 nM): 0.999 ± 0.018

NCIH441 LUNG
surviving fraction ([1]; 0.5 nM): 0.964 ± 0.035
surviving fraction ([1]; 1 nM): 0.977 ± 0.13
surviving fraction ([1]; 5 nM): 0.99 ± 0.029
surviving fraction ([1]; 10 nM): 0.989 ± 0.059
surviving fraction ([1]; 50 nM): 0.997 ± 0.04
surviving fraction ([1]; 100 nM): 1.07 ± 0.065
surviving fraction ([1]; 500 nM): 0.917 ± 0.072
surviving fraction ([1]; 1000 nM): 0.979 ± 0.092
surviving fraction ([2]; 0.5 nM): 1.1 ± 0.07
surviving fraction ([2]; 1 nM): 1.01 ± 0.04
surviving fraction ([2]; 5 nM): 1.1 ± 0.035
surviving fraction ([2]; 10 nM): 1.19 ± 0.053
surviving fraction ([2]; 50 nM): 1.17 ± 0.026
surviving fraction ([2]; 100 nM): 1.16 ± 0.11
surviving fraction ([2]; 500 nM): 0.86 ± 0.051
surviving fraction ([2]; 1000 nM): 0.531 ± 0.031

NOS1 BONE
surviving fraction ([1]; 0.5 nM): 1 ± 0.038
surviving fraction ([1]; 1 nM): 1.05 ± 0.051
surviving fraction ([1]; 5 nM): 1.16 ± 0.14
surviving fraction ([1]; 10 nM): 1.35 ± 0.26
surviving fraction ([1]; 50 nM): 1.22 ± 0.21
surviving fraction ([1]; 100 nM): 1.14 ± 0.12
surviving fraction ([1]; 500 nM): 1.12 ± 0.11
surviving fraction ([1]; 1000 nM): 0.949 ± 0.043
surviving fraction ([2]; 0.5 nM): 1.09 ± 0.18
surviving fraction ([2]; 1 nM): 1.05 ± 0.082
surviving fraction ([2]; 5 nM): 0.999 ± 0.066
surviving fraction ([2]; 10 nM): 1.02 ± 0.076
surviving fraction ([2]; 50 nM): 0.875 ± 0.046
surviving fraction ([2]; 100 nM): 0.709 ± 0.12
surviving fraction ([2]; 500 nM): 0.252 ± 0.0046
surviving fraction ([2]; 1000 nM): 0.253 ± 0.0087
